2 compounds from PMC11583123, “Linker Chemistry and Connectivity Fine-Tune the Immune Response and Kinetic Solubility of Conjugated NOD2/TLR7 Agonists” (Bioconjugate Chemistry, 2024) can be followed below.

One may read the EC50 as the concentration giving half of the maximal effect.

“Also recorded” adds a separate entry of the source.

Holding throughout (assay type): cell-based
For one experiment, the target named is T1, human TLR8 (Homo sapiens, UniProt Q9NR97).
T1 construct: host or cells: HEK-Blue TLR8 (HEK293-derived)
T1 sequence (Q9NR97 27-1041): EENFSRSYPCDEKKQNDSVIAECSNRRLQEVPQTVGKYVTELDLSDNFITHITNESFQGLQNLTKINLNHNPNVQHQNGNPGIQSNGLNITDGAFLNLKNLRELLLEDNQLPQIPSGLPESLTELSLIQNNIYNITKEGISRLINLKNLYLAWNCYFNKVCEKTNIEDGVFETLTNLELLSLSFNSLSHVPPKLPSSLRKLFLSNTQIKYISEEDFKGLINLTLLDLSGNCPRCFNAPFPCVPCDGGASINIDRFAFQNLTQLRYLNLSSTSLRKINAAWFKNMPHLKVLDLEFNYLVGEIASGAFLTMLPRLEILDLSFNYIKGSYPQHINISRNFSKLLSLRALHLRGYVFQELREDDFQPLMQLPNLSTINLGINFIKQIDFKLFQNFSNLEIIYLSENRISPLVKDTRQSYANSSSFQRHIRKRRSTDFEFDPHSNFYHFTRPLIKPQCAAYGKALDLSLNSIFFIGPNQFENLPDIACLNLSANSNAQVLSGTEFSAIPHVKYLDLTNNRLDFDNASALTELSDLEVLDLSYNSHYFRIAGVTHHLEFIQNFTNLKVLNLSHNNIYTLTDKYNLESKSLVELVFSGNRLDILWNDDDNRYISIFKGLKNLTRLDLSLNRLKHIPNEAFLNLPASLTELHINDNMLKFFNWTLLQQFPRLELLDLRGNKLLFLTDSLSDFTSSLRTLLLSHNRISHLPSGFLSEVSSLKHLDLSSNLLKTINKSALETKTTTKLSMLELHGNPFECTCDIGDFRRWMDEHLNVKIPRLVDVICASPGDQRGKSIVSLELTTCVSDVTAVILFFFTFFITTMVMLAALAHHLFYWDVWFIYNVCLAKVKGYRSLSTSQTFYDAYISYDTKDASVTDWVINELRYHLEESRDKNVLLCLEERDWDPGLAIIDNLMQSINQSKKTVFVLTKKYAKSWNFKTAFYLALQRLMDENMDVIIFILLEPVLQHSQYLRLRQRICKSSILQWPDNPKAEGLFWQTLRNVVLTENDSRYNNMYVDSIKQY
Briefly: HEK-Blue TLR8 NF-κB SEAP reporter assay. Conditions: HEK-Blue TLR8 cells; for EC50: 18 h, eight concentrations (1 nM to 10 μM), mean ± SEM; for TLR8 agonistic activity (in words): up to 10 μM. The source says:
(§1) The building blocks and synthesized conjugates were initially assessed for their receptor-specific activities toward NOD2, TLR7 and TLR8 using the commercially available HEK-Blue NOD2, TLR7 and TLR8 reporter cell lines. These cell lines were derived from HEK293 cells by cotransfection of human NOD2/TLR7/TLR8 and an NF-κB-inducible secreted embryonic alkaline phosphatase (SEAP). Activation of NOD2/TLR7/TLR8, and subsequently of NF-κB, leads to the expression and secretion of SEAP, the levels of which can be quantified colorimetrically. […]
(§2) 3.1. Hek-Blue NOD2, TLR7 and TLR8 cells.
(§3) HEK-Blue NOD2, TLR7, and TLR8 cells (Invivogen, San Diego, CA, USA) were cultured according to the manufacturer instructions in Dulbecco’s modified Eagle’s medium (Sigma-Aldrich, St. Louis, MO, USA) supplemented with 10% heat-inactivated fetal bovine serum (Gibco), 2 mM L-glutamine (Sigma-Aldrich), 100 U/mL penicillin (Sigma-Aldrich), 100 µg/mL streptomycin (Sigma-Aldrich), and 100 µg/mL Normocin (Invivogen) for two passages. All subsequent passages of NOD2 and TLR8 cells were cultured in medium additionally supplemented with 100 µg/mL Zeocin and 30 µg/mL Blasticidin (Invivogen) and of TLR7 cells with 100 µg/mL Zeocin and 10 µg/mL Blasticidin. […]
(§4) The tested compounds were dissolved in DMSO and further diluted in culture medium to the desired final concentrations, such that the final DMSO concentration never exceeded 0.1%. […]
(§5) 3.4 NOD2/TLR7/TLR8 NF-kB reporter assay
(§6) HEK-Blue NOD2 cells (25,000 cells/well), TLR7 and TLR8 cells (40,000 cells/well) were seeded in 96-well plates in 100 µL HEK-Blue detection medium (Invivogen, San Diego, CA, USA) and treated with […]
(§7) corresponding vehicle (0.1% DMSO). After 18 h of incubation (37 °C, 5% CO2), secreted embryonic
Background: Reporter assays use an easily measured gene product as a stand-in for the process of interest.

A further experiment deals with T2, human NOD2 (Homo sapiens, UniProt Q9HC29).
T2 construct: host or cells: HEK-Blue NOD2 (HEK293-derived)
Briefly: HEK-Blue NOD2 NF-κB SEAP reporter assay. As to conditions: HEK-Blue NOD2 cells.
Source text: as §1, §2, §3, §4, §5, §6, §7

The subject of experiment [1] is human primary peripheral blood mononuclear cells (PBMCs). Briefly: Cytokine release from peripheral blood mononuclear cells (LEGENDplex). Conditions: 1 μM, 18 h, Figure S2. As for the experimental part: Third, the immunostimulatory potential of synthesized conjugates was assessed in human primary peripheral blood mononuclear cells (PBMCs) (Figure 3, Supporting Table), which represent a diverse array of immune cell subpopulations, providing a more physiologically relevant system for studying concurrent NOD2/TLR7 or NOD2/TLR7/TLR8 activation. […]
software (version 9; GraphPad Software, CA, USA). The experiments were run in duplicates, and repeated as at least three independent biological replicates.
3.5 Cytokine Release from Peripheral Blood Mononuclear Cells […]
growth medium and treated with the compounds (1 μM), or the corresponding vehicle (0.1% DMSO).
Cell-free supernatants were collected after 18 h of incubation (37 °C, 5% CO2) and stored at −80 °C until tested. Cytokine concentrations were determined with the LEGENDplex™ HU Essential Immune Response Panel (Biolegend) on an Attune NxT flow cytometer (Thermo Fisher Scientific, Waltham, MA). […] The data were analyzed using the FlowJo (Tree Star, Inc., Ashland, OR) and Prism (GraphPad, San Diego, CA) software.
Statistical significance was determined with one-way ANOVA with subsequent Dunnett’s multiple […]
The data were analyzed using Prism software (version 9; GraphPad Software, CA, USA). Statistical significance was determined according to the specific procedures outlined in each experiment. […]

[2] abbreviates: 18 h, eight concentrations (1 nM to 10 μM), mean ± SEM.

T2 sequence (Q9HC29 whole entry): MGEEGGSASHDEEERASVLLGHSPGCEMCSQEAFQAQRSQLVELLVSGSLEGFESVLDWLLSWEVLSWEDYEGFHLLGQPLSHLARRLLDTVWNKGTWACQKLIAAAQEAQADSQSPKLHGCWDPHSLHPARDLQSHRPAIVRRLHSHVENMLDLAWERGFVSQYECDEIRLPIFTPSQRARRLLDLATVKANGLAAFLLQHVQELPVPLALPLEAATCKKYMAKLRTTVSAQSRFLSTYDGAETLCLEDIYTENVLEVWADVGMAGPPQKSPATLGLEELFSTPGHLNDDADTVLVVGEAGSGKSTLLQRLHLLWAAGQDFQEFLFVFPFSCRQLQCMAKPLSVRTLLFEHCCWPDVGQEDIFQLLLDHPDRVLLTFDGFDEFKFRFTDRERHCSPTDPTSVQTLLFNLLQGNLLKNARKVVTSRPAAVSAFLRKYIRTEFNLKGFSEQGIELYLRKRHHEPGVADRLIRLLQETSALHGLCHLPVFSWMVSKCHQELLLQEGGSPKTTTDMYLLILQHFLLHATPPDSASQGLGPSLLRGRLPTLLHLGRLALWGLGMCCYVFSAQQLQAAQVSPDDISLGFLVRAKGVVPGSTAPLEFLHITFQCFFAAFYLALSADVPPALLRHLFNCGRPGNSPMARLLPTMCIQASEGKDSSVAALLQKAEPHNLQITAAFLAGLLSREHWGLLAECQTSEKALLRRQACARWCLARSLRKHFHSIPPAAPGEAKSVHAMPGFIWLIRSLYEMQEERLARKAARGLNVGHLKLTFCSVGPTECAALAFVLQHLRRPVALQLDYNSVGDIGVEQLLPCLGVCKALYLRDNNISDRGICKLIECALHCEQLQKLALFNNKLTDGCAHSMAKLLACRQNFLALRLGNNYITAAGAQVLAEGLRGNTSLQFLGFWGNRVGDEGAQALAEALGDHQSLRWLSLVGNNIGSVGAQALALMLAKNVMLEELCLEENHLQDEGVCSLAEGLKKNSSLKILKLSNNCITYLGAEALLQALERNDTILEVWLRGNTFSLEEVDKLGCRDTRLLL

For the compound `CCOCc1nc2c(NC(=O)CCCCCNC(=O)CC[C@@H](NC(=O)[C@@H](NC(=O)CNC(=O)/C=C/c3ccc(O)c(OC)c3)C(C)C)C(=O)OCC)nc3ccccc3c2n1CC(C)(C)O` [compound 32], the EC50 is above 10 µM at human TLR8, 7.2 µM on human NOD2 and 7.23 ± 0.499 µM on human NOD2 (setting [2]). Besides, on human TLR8, the “TLR8 agonistic activity (in words)” value is “neither 32 nor 33 were able to induce any TLR8 agonistic activity”. For the same compound, the “Cytokine release versus combinations of 5 + 6 or 5 + 7 (in words)” value in experiment [1] is listed as “devoid of any potential synergistic effect; also recorded: not significantly increased”.

Regarding `CCOCc1nc2c(N)nc3ccccc3c2n1CC(C)(C)NC(=O)CCCCCNC(=O)CC[C@@H](NC(=O)[C@@H](NC(=O)CNC(=O)/C=C/c1ccc(O)c(OC)c1)C(C)C)C(=O)OCC` [compound 33], the EC50 at human TLR8 and at human NOD2 (setting [2]) was above 10 µM each time. Further, the “TLR8 agonistic activity (in words)” value at human TLR8 was “neither 32 nor 33 were able to induce any TLR8 agonistic activity”. Besides, the “Cytokine release versus combinations of 5 + 6 or 5 + 7 (in words)” value in experiment [1] is on record as “devoid of any potential synergistic effect; also recorded: not significantly increased”.
